The values below come from ChEMBL document CHEMBL2028040, “Malaria Box”.

Series [1] concerns Trypanosoma brucei brucei. The experiment in a line: MMV: Inhibition of Trypanosoma brucei brucei (Squib 427) (HAT in vitro). The series is classed as functional, organism-based.
Series [2] is described as follows: MMV: Cytotoxicity against human fibroblasts (MRC-5) cells. Conditions: MRC-5 cells (human fibroblasts).
A further series concerns Leishmania infantum. The experiment in a line: MMV: Inhibition of Leishmania infantum (MHOM/MA/BE/67) in vitro. The series is classed as functional, organism-based.
The test system of a further series is Trypanosoma cruzi. The experiment in a line: MMV: Inhibition of Trypanosoma cruzi (Tulahuen C4 LacZ) (Chagas in vitro). The series is classed as functional, organism-based.
The next series concerns Plasmodium falciparum. The experiment in a line: MMV: Inhibition of Plasmodium falciparum 3D7 at 5uM compound concentration. The series is classed as functional.
The subject of series [3] is Trypanosoma brucei rhodesiense. The experiment in a line: MMV: Inhibition of Trypanosoma brucei rhodesiense (STIB 900) (HAT in vitro). The series is classed as functional, organism-based.

Consider `O=C(Nc1ccc(Br)cc1)Nc1cccc(Cl)c1`, for which the IC50 (in general, the concentration that inhibits the measured activity by half) in series [1] is 4 µM; in series [2], over 32 µM; in the series with Leishmania infantum, 10.2 µM; in the series on Trypanosoma cruzi, 5.21 µM; in series [3], 3.09 µM. Also, the inhibition (usually the share of the control response that was lost under treatment) at 5 µM in the series with Plasmodium falciparum was found to be 94%.
Take `COc1ccc(C(=O)Nc2ccc3nc(N4CCCCC4)cc(C)c3c2)cc1OC`: the IC50 in series [1] stood at 16.2 µM; in series [2], 16.4 µM; in the series on Leishmania infantum it was 16.2 µM; in the series with Trypanosoma cruzi, 14.6 µM; in series [3] it was 10.9 µM.
With `COc1cc2cc(C(=O)Nc3ccccc3)c(N)nc2cc1OC`, the IC50 (in series [1]; in series [2]; in the series with Leishmania infantum; in the series on Trypanosoma cruzi; in series [3]) was over 32 µM each time.
For the compound `CC(=O)c1ccc(NC(=O)CSc2nc(-c3ccccc3Cl)ns2)cc1`, the IC50 (in series [1]; in series [2]; with Leishmania infantum; with Trypanosoma cruzi; in series [3]) was over 32 µM throughout.
On to `CCC(=O)Nc1nnc(Cc2ccc(OC)c(OC)c2)s1`, for which the IC50 (in series [1]; in series [2]; in the series on Leishmania infantum; in the series with Trypanosoma cruzi; in series [3]) was over 32 µM in each case. The compound also showed an inhibition at 5 µM in the series on Plasmodium falciparum of 47%.
Turning to `CCN1CCN(c2cc(C)c3cc(NC(=O)c4ccc(OC)c(OC)c4)ccc3n2)CC1`, the concentration for half-maximal inhibition (IC50) was 4.78 µM in series [1]; 5.46 µM in series [2]; 6.35 µM with Leishmania infantum; 6.59 µM in the series with Trypanosoma cruzi; 3.22 µM in series [3].
With `COc1ccc(-c2cn3c(C(=O)Nc4ccccc4Cl)c(-c4ccccc4)c4c3n2CCCC4)cc1`, the half-inhibitory concentration (IC50) in series [1] is 16.5 µM; in series [2], over 32 µM; with Leishmania infantum it was 16 µM; in the series on Trypanosoma cruzi, 15 µM; in series [3], 5 µM. This compound also came in with an inhibition at 5 µM in the series on Plasmodium falciparum of 80%.
On to `Oc1ccc2ccccc2c1CNc1nc2ccccc2[nH]1`, for which the IC50 in series [1] was 16.1 µM; in series [2] it was over 32 µM; in the series on Leishmania infantum, over 32 µM; with Trypanosoma cruzi, over 32 µM; in series [3], 8.65 µM. The same compound had an inhibition at 5 µM in the series with Plasmodium falciparum of 83%.
Take `COc1cccc(C(=O)Nc2ccc(-c3nc4ccccc4[nH]3)cc2)c1`: the IC50 in series [1] was over 32 µM; in series [2], over 32 µM; in the series with Leishmania infantum it was 16.2 µM; in the series on Trypanosoma cruzi, over 32 µM; in series [3], over 32 µM. For the same compound, testing at 5 µM in the series with Plasmodium falciparum gave an inhibition of 83%.
With `O=C(Nc1ccc(-c2nc3cc(NC(=O)c4ccc(Cl)cc4)ccc3[nH]2)cc1)c1ccc(Cl)cc1`, the IC50 (in series [1]; in series [2]; in the series with Leishmania infantum; with Trypanosoma cruzi; in series [3]) was over 32 µM each time.
On to `CCOc1cccc(C(=O)Nc2ccc(-c3nc4ccccc4[nH]3)cc2)c1`, for which the half-inhibitory concentration (IC50) in series [1] was over 32 µM; in series [2] it was over 32 µM; in the series with Leishmania infantum, 16.2 µM; in the series with Trypanosoma cruzi, over 32 µM; in series [3], over 32 µM.
On to `CCOC(=O)c1cnc2ccc(OC)cc2c1Nc1ccc(N2CCN(C)CC2)cc1`, for which the IC50 in series [1] was 32 µM; in series [2], 13.9 µM; in the series with Leishmania infantum, over 32 µM; in the series on Trypanosoma cruzi, 4.13 µM; in series [3] it was 3.82 µM.
`COc1ccc(C(=O)C(CCC(CNC(C)(C)C)C(=O)c2ccc(OC)cc2)CNC(C)(C)C)cc1` (stereo not given): the IC50 worked out at 1.02 µM in series [1]; 10.3 µM in series [2]; 0.846 µM in the series on Leishmania infantum; 4.15 µM in the series with Trypanosoma cruzi; 1.65 µM in series [3]. In the series with Plasmodium falciparum, this compound yielded an inhibition at 5 µM of 85%.
Turning to `Cc1c(C)n(Cc2ccc(F)cc2)c2ccc(C(=O)NCc3ccco3)cc12`, the IC50 in series [1] is 11 µM; in series [2], over 32 µM; with Leishmania infantum, over 32 µM; in the series with Trypanosoma cruzi it was over 32 µM; in series [3] it was 15.4 µM. The same compound gave an inhibition at 5 µM with Plasmodium falciparum of 52%.
Consider `CCN(CC)c1ccc(NC(=O)c2cccs2)cc1`, for which the IC50 (in series [1]; in series [2]; in the series with Leishmania infantum; with Trypanosoma cruzi; in series [3]) was over 32 µM each time. Further, the inhibition at 5 µM in the series with Plasmodium falciparum amounted to 88%.
Turning to `CCOc1ccccc1NC(=O)CN1CCN(C(=O)c2ccco2)CC1`, the half-maximal inhibitory concentration (IC50) (in series [1]; in series [2]; with Leishmania infantum; in the series with Trypanosoma cruzi; in series [3]) was over 32 µM each time. The inhibition at 5 µM with Plasmodium falciparum was found to be 83%.
With `COc1ccc(-c2nonc2NC(=O)c2cccc(Cl)c2)cc1OC`, the IC50 (in series [1]; in series [2]; with Leishmania infantum; with Trypanosoma cruzi; in series [3]) was over 32 µM each time.
As for `Cc1ccc(-c2nc3ccccc3o2)cc1NCc1cc(Cc2ccccc2)ccc1O`, the IC50 in series [1] is over 32 µM; in series [2] it was over 32 µM; in the series on Leishmania infantum, 16.2 µM; with Trypanosoma cruzi it was over 32 µM; in series [3], over 32 µM. The compound further displayed an inhibition at 5 µM in the series on Plasmodium falciparum of 64%.
With `O=C1CC(O)(C(F)(F)C(F)(F)F)Oc2ccccc21` (stereo not given), the concentration for half-maximal inhibition (IC50) is over 32 µM in series [1]; 18.1 µM in series [2]; over 32 µM in the series on Leishmania infantum; 16.3 µM with Trypanosoma cruzi; 30.3 µM in series [3]. This compound also had an inhibition at 5 µM in the series on Plasmodium falciparum of 95%.
On to `CCOc1cccc2sc(N(Cc3cccnc3)C(=O)C3CCCCC3)nc12`, for which the IC50 in series [1] is 27 µM; in series [2] it was over 32 µM; in the series on Leishmania infantum it was 19 µM; in the series on Trypanosoma cruzi it was 0.165 µM; in series [3] it was 16 µM. The compound further came in with an inhibition at 5 µM with Plasmodium falciparum of 94%.
Take `COc1ccccc1CNC(=O)C1c2ccccc2C(=O)N(CC(C)C)C1c1cccs1` (stereo not given): the IC50 is over 32 µM in series [1]; over 32 µM in series [2]; over 32 µM in the series on Leishmania infantum; over 32 µM in the series on Trypanosoma cruzi; 19.7 µM in series [3]. In the series with Plasmodium falciparum, the inhibition at 5 µM worked out at 97%.
Consider `CCN(CC)c1cc(C)c2cc(NC(=O)c3cccc(OC)c3)ccc2n1`, for which the IC50 in series [1] came to 14.3 µM; in series [2] it was 15.3 µM; in the series on Leishmania infantum it was 16.2 µM; in the series with Trypanosoma cruzi, 13.7 µM; in series [3] it was 0.679 µM.
For `COc1ccc(C(O)(CCC(C)C)C(CN2CCOCC2)c2ccc(Cl)cc2)cc1` (stereo not given), the IC50 in series [1] stood at 3.85 µM; in series [2] it was 10.8 µM; with Leishmania infantum, 4.76 µM; with Trypanosoma cruzi it was 4.26 µM; in series [3] it was 4 µM. The compound also gave an inhibition at 5 µM in the series with Plasmodium falciparum of 97%.
As to `Cc1ccc(NC(=O)Nc2cccc(Cl)c2)cc1F`, the IC50 in series [1] is 5.81 µM; in series [2], over 32 µM; with Leishmania infantum, over 32 µM; with Trypanosoma cruzi, 6.29 µM; in series [3], 4.03 µM. In the series with Plasmodium falciparum, this compound showed an inhibition at 5 µM of 52%.
In the case of `Oc1c(CN2CCN(c3ccccc3F)CC2)cc(Br)c2cccnc12`, the IC50 is 1.15 µM in series [1]; 5.58 µM in series [2]; over 32 µM with Leishmania infantum; 0.963 µM in the series on Trypanosoma cruzi; 1.05 µM in series [3]. This compound also registered an inhibition at 5 µM in the series on Plasmodium falciparum of 91%.
As for `Oc1c2c(nc3cc(-c4ccccc4)nn13)CCCC2`, the IC50 was 12.8 µM in series [1]; over 32 µM in series [2]; over 32 µM in the series on Leishmania infantum; over 32 µM with Trypanosoma cruzi; 8 µM in series [3]. Further, in the series on Plasmodium falciparum, at 5 µM the inhibition was 77%.
As to `COc1ccc(C)c2sc(N(Cc3cccnc3)C(=O)c3ccc(C#N)cc3)nc12`, the IC50 is 14.6 µM in series [1]; over 32 µM in series [2]; over 32 µM in the series with Leishmania infantum; 2.32 µM with Trypanosoma cruzi; 16 µM in series [3]. The compound further registered an inhibition at 5 µM in the series with Plasmodium falciparum of 91%.
As for `CCCCCCC(O)(c1ccc(F)cc1)C(CN1CCOCC1)c1ccccc1` (stereo not given), the IC50 in series [1] was 16.2 µM; in series [2], over 32 µM; in the series on Leishmania infantum, 4.32 µM; in the series on Trypanosoma cruzi, 4.78 µM; in series [3], 12.5 µM. In the series with Plasmodium falciparum, this compound showed an inhibition at 5 µM of 93%.
Turning to `Cc1ccc(C)c(-c2csc(Nc3ccc(C)c(C)c3)n2)c1`, the IC50 in series [1] was over 32 µM; in series [2] it was over 32 µM; in the series on Leishmania infantum, over 32 µM; in the series with Trypanosoma cruzi, 19.3 µM; in series [3] it was 22.8 µM. The same compound came in with an inhibition at 5 µM in the series on Plasmodium falciparum of 94%.
For the compound `CCOc1ccc(CCNC(=O)c2cccs2)cc1OCC`, the IC50 (in series [1]; in series [2]; with Leishmania infantum; with Trypanosoma cruzi; in series [3]) was over 32 µM each time. In the series with Plasmodium falciparum, this compound yielded an inhibition at 5 µM of 95%.
`CN(C)c1ccc(N=Cc2ccc(N3CCOCC3)cc2)cc1`: the IC50 in series [1] was 13.3 µM; in series [2] it was over 32 µM; with Leishmania infantum, 10.1 µM; in the series with Trypanosoma cruzi, 17 µM; in series [3], 3.51 µM. In the series with Plasmodium falciparum, this compound had an inhibition at 5 µM of 96%.
Regarding `CCCCOc1ccc(C(=O)Nc2cc(C)on2)cc1`, the IC50 (in series [1]; in series [2]; in the series on Leishmania infantum; with Trypanosoma cruzi; in series [3]) was over 32 µM throughout. Moreover, the inhibition at 5 µM in the series on Plasmodium falciparum came to 73%.
As for `CCN1CCN(c2c(C(=O)c3ccccc3)cnc3cc(OC)c(OC)cc23)CC1`, the IC50 in series [1] was over 32 µM; in series [2], over 32 µM; in the series with Leishmania infantum it was over 32 µM; in the series with Trypanosoma cruzi it was over 32 µM; in series [3], 17.9 µM. Moreover, the inhibition at 5 µM in the series on Plasmodium falciparum was found to be 59%.
Take `CCCCN(CCCC)S(=O)(=O)c1ccc(NC(=O)c2ccco2)cc1`: the IC50 in series [1] is over 32 µM; in series [2], over 32 µM; in the series on Leishmania infantum, over 32 µM; in the series on Trypanosoma cruzi it was over 32 µM; in series [3] it was 16.3 µM. This compound also showed an inhibition at 5 µM in the series with Plasmodium falciparum of 78%.
